Source: ChEMBL document CHEMBL5724914, “Linking interpersonal differences in gut microbiota composition and drug biotransformation activity” (2024)

Columns and labels:
[1] = The drug is tested on Z-016 corresponding to mouse gut metagenome with ENA study accession number: PRJEB37062 and ENA sample accession number: ERS12561815 for biotransformation under anaerobic condition. The drug concentrations were measured over 9 timepoints collected between 0 and 24 hours of incubation by liquid-chromatography-coupled mass spectrometry (LC–MS); settings: 2 µM
[2] = The drug is tested on WLS-027 corresponding to human gut metagenome with ENA study accession number: PRJEB37062 and ENA sample accession number: ERS12561744 for biotransformation under anaerobic condition. The drug concentrations were measured over 9 timepoints collected between 0 and 24 hours of incubation by liquid-chromatography-coupled mass spectrometry (LC–MS); settings: 2 µM
[3] = human gut metagenome, 24 h, 2 µM
[4] = The drug is tested on Z-005 corresponding to metagenome with ENA study accession number: PRJEB37062 and ENA sample accession number: ERS12561805 for biotransformation under anaerobic condition. The drug concentrations were measured over 9 timepoints collected between 0 and 24 hours of incubation by liquid-chromatography-coupled mass spectrometry (LC–MS); settings: 2 µM
[5] = human gut metagenome, 24 h, 2 µM; remark: listed apart in the source
[6] = human gut metagenome, 24 h, 2 µM; remark: listed apart in the source
[7] = human gut metagenome, 24 h, 2 µM; remark: listed apart in the source
[8] = human gut metagenome, 24 h, 2 µM; remark: listed apart in the source
[9] = The drug is tested on Z-021 corresponding to metagenome with ENA study accession number: PRJEB37062 and ENA sample accession number: ERS12561820 for biotransformation under anaerobic condition. The drug concentrations were measured over 9 timepoints collected between 0 and 24 hours of incubation by liquid-chromatography-coupled mass spectrometry (LC–MS); settings: 2 µM
[10] = The drug is tested on WLS-350 corresponding to human gut metagenome with ENA study accession number: PRJEB37062 and ENA sample accession number: ERS12561789 for biotransformation under anaerobic condition. The drug concentrations were measured over 9 timepoints collected between 0 and 24 hours of incubation by liquid-chromatography-coupled mass spectrometry (LC–MS); settings: 2 µM
[11] = human gut metagenome, 24 h, 2 µM; remark: listed apart in the source
[12] = human gut metagenome, 24 h, 2 µM; remark: listed apart in the source
[13] = The drug is tested on Z-027 corresponding to metagenome with ENA study accession number: PRJEB37062 and ENA sample accession number: ERS12561826 for biotransformation under anaerobic condition. The drug concentrations were measured over 9 timepoints collected between 0 and 24 hours of incubation by liquid-chromatography-coupled mass spectrometry (LC–MS); settings: 2 µM
[14] = human gut metagenome, 24 h, 2 µM; remark: listed apart in the source
[15] = The drug is tested on WLS-007 corresponding to human gut metagenome with ENA study accession number: PRJEB37062 and ENA sample accession number: ERS12561742 for biotransformation under anaerobic condition. The drug concentrations were measured over 9 timepoints collected between 0 and 24 hours of incubation by liquid-chromatography-coupled mass spectrometry (LC–MS); settings: 2 µM
[16] = human gut metagenome, 24 h, 2 µM; remark: listed apart in the source
[17] = The drug is tested on WLS-082 corresponding to human gut metagenome with ENA study accession number: PRJEB37062 and ENA sample accession number: ERS12561751 for biotransformation under anaerobic condition. The drug concentrations were measured over 9 timepoints collected between 0 and 24 hours of incubation by liquid-chromatography-coupled mass spectrometry (LC–MS); settings: 2 µM
[18] = The drug is tested on Z-004 corresponding to metagenome with ENA study accession number: PRJEB37062 and ENA sample accession number: ERS12561804 for biotransformation under anaerobic condition. The drug concentrations were measured over 9 timepoints collected between 0 and 24 hours of incubation by liquid-chromatography-coupled mass spectrometry (LC–MS); settings: 2 µM
[19] = human gut metagenome, 24 h, 2 µM; remark: listed apart in the source
[20] = human gut metagenome, 24 h, 2 µM; remark: listed apart in the source
Further: call rule not given here.

CN(C)CCOC(C)(c1ccccc1)c1ccccn1.O=C(O)CCC(=O)O (stereo not given) [DOXYLAMINE SUCCINATE]
Bacterial Biotransformation [1]: Compound NOT metabolized
Bacterial Biotransformation [2]: Compound NOT metabolized
Bacterial Biotransformation [3]: Compound NOT metabolized
Bacterial Biotransformation [4]: Compound NOT metabolized
Bacterial Biotransformation [5]: Compound NOT metabolized
Bacterial Biotransformation [6]: Compound NOT metabolized
Bacterial Biotransformation [7]: Compound NOT metabolized
Bacterial Biotransformation [8]: Compound NOT metabolized
Bacterial Biotransformation [9]: Compound NOT metabolized
Bacterial Biotransformation [10]: Compound NOT metabolized
Bacterial Biotransformation [11]: Compound NOT metabolized
Bacterial Biotransformation [12]: Compound NOT metabolized
Bacterial Biotransformation [13]: Compound NOT metabolized
Bacterial Biotransformation [14]: Compound NOT metabolized
Bacterial Biotransformation [15]: Compound NOT metabolized
Bacterial Biotransformation [16]: Compound NOT metabolized
Bacterial Biotransformation [17]: Compound NOT metabolized
Bacterial Biotransformation [18]: Compound NOT metabolized
Bacterial Biotransformation [19]: Compound NOT metabolized
Bacterial Biotransformation [20]: Compound NOT metabolized

Br.CN1CCC[C@@H]1Cc1c[nH]c2ccc(CCS(=O)(=O)c3ccccc3)cc12 [ELETRIPTAN HYDROBROMIDE]
Bacterial Biotransformation [1]: Compound NOT metabolized
Bacterial Biotransformation [2]: Compound NOT metabolized
Bacterial Biotransformation [3]: Compound metabolized
Bacterial Biotransformation [4]: Compound NOT metabolized
Bacterial Biotransformation [5]: Compound NOT metabolized
Bacterial Biotransformation [6]: Compound NOT metabolized
Bacterial Biotransformation [7]: Compound NOT metabolized
Bacterial Biotransformation [8]: Compound NOT metabolized
Bacterial Biotransformation [9]: Compound NOT metabolized
Bacterial Biotransformation [10]: Compound NOT metabolized
Bacterial Biotransformation [11]: Compound metabolized
Bacterial Biotransformation [12]: Compound NOT metabolized
Bacterial Biotransformation [13]: Compound NOT metabolized
Bacterial Biotransformation [14]: Compound metabolized
Bacterial Biotransformation [15]: Compound metabolized
Bacterial Biotransformation [16]: Compound metabolized
Bacterial Biotransformation [17]: Compound NOT metabolized
Bacterial Biotransformation [18]: Compound NOT metabolized
Bacterial Biotransformation [19]: Compound NOT metabolized
Bacterial Biotransformation [20]: Compound NOT metabolized

CCOc1ccc2nc(S(N)(=O)=O)sc2c1 [ETHOXZOLAMIDE]
Bacterial Biotransformation [1]: Compound NOT metabolized
Bacterial Biotransformation [2]: Compound NOT metabolized
Bacterial Biotransformation [3]: Compound metabolized
Bacterial Biotransformation [4]: Compound NOT metabolized
Bacterial Biotransformation [5]: Compound NOT metabolized
Bacterial Biotransformation [6]: Compound NOT metabolized
Bacterial Biotransformation [7]: Compound NOT metabolized
Bacterial Biotransformation [8]: Compound NOT metabolized
Bacterial Biotransformation [9]: Compound metabolized
Bacterial Biotransformation [10]: Compound NOT metabolized
Bacterial Biotransformation [11]: Compound metabolized
Bacterial Biotransformation [12]: Compound NOT metabolized
Bacterial Biotransformation [13]: Compound NOT metabolized
Bacterial Biotransformation [14]: Compound NOT metabolized
Bacterial Biotransformation [15]: Compound NOT metabolized
Bacterial Biotransformation [16]: Compound NOT metabolized
Bacterial Biotransformation [17]: Compound NOT metabolized
Bacterial Biotransformation [18]: Compound NOT metabolized
Bacterial Biotransformation [19]: Compound NOT metabolized
Bacterial Biotransformation [20]: Compound NOT metabolized

CC(=O)OCC(CCn1cnc2cnc(N)nc21)COC(C)=O [FAMCICLOVIR]
Bacterial Biotransformation [1]: Compound NOT metabolized
Bacterial Biotransformation [2]: Compound metabolized
Bacterial Biotransformation [3]: Compound metabolized
Bacterial Biotransformation [4]: Compound metabolized
Bacterial Biotransformation [5]: Compound metabolized
Bacterial Biotransformation [6]: Compound metabolized
Bacterial Biotransformation [7]: Compound metabolized
Bacterial Biotransformation [8]: Compound metabolized
Bacterial Biotransformation [9]: Compound NOT metabolized
Bacterial Biotransformation [10]: Compound metabolized
Bacterial Biotransformation [11]: Compound metabolized
Bacterial Biotransformation [12]: Compound metabolized
Bacterial Biotransformation [13]: Compound NOT metabolized
Bacterial Biotransformation [14]: Compound metabolized
Bacterial Biotransformation [15]: Compound metabolized
Bacterial Biotransformation [16]: Compound metabolized
Bacterial Biotransformation [17]: Compound metabolized
Bacterial Biotransformation [18]: Compound NOT metabolized
Bacterial Biotransformation [19]: Compound metabolized
Bacterial Biotransformation [20]: Compound metabolized

CC(C)(C)NC(=O)[C@H]1CC[C@H]2[C@@H]3CC[C@H]4NC(=O)C=C[C@]4(C)[C@H]3CC[C@]12C [FINASTERIDE]
Bacterial Biotransformation [1]: Compound metabolized
Bacterial Biotransformation [2]: Compound metabolized
Bacterial Biotransformation [3]: Compound metabolized
Bacterial Biotransformation [4]: Compound metabolized
Bacterial Biotransformation [5]: Compound metabolized
Bacterial Biotransformation [6]: Compound metabolized
Bacterial Biotransformation [7]: Compound metabolized
Bacterial Biotransformation [8]: Compound metabolized
Bacterial Biotransformation [9]: Compound NOT metabolized
Bacterial Biotransformation [10]: Compound metabolized
Bacterial Biotransformation [11]: Compound metabolized
Bacterial Biotransformation [12]: Compound metabolized
Bacterial Biotransformation [13]: Compound metabolized
Bacterial Biotransformation [14]: Compound metabolized
Bacterial Biotransformation [15]: Compound NOT metabolized
Bacterial Biotransformation [16]: Compound metabolized
Bacterial Biotransformation [17]: Compound metabolized
Bacterial Biotransformation [18]: Compound NOT metabolized
Bacterial Biotransformation [19]: Compound metabolized
Bacterial Biotransformation [20]: Compound metabolized

CC1Cc2ccccc2N1NC(=O)c1ccc(Cl)c(S(N)(=O)=O)c1 (stereo not given) [INDAPAMIDE]
Bacterial Biotransformation [1]: Compound NOT metabolized
Bacterial Biotransformation [2]: Compound NOT metabolized
Bacterial Biotransformation [3]: Compound NOT metabolized
Bacterial Biotransformation [4]: Compound NOT metabolized
Bacterial Biotransformation [5]: Compound NOT metabolized
Bacterial Biotransformation [6]: Compound NOT metabolized
Bacterial Biotransformation [7]: Compound NOT metabolized
Bacterial Biotransformation [8]: Compound NOT metabolized
Bacterial Biotransformation [9]: Compound NOT metabolized
Bacterial Biotransformation [10]: Compound NOT metabolized
Bacterial Biotransformation [11]: Compound NOT metabolized
Bacterial Biotransformation [12]: Compound NOT metabolized
Bacterial Biotransformation [13]: Compound NOT metabolized
Bacterial Biotransformation [14]: Compound NOT metabolized
Bacterial Biotransformation [15]: Compound NOT metabolized
Bacterial Biotransformation [16]: Compound NOT metabolized
Bacterial Biotransformation [17]: Compound NOT metabolized
Bacterial Biotransformation [18]: Compound NOT metabolized
Bacterial Biotransformation [19]: Compound NOT metabolized
Bacterial Biotransformation [20]: Compound NOT metabolized
